Test results published in PubChem BioAssay (NCI).
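Cells were grown in 96-well plates and exposed to each compound for 48 hours at five concentrations; endpoints were interpolated linearly between bracketing concentrations, or set to the highest concentration if not reached. TGI: concentration producing complete growth inhibition.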

Assays:
Test in all cases: NCI anticancer screen, dose series, 48 h
DLD-1 colon = test system: DLD-1 colon
KM20L2 colon = test system: KM20L2 colon
LXFL 529 NSCLC = test system: LXFL 529 NSCLC
RXF-631 renal = test system: RXF-631 renal
SN12K1 renal = test system: SN12K1 renal

| Compound | TGI (DLD-1 colon) [µM] | TGI (KM20L2 colon) [µM] | TGI (LXFL 529 NSCLC) [µM] | TGI (RXF-631 renal) [µM] | TGI (SN12K1 renal) [µM] |
| --- | --- | --- | --- | --- | --- |
| O=c1c2ccccc2n2nnc3ccc(NCCNCCO)c1c32 | 15.4 | 8.29 | 14.2 | 9.36 |  |
| Nc1ncnc2c1ncn2C1C(O)C=C(CO)C1O (configuration not stated) | > 625 | > 625 |  |  | > 625 |
